According to the NIST ThermoML archive (doi:10.1021/acs.jced.7b00106):

Settings: Hot wire method

FC(F)(F)/C=C/Cl [(E)-1-chloro-3,3,3-trifluoroprop-1-ene]
Settings	thermal conductivity [W/m/K]
283.61 K, 46184 kPa, Liquid	0.1051
283.62 K, 194 kPa, Liquid	0.08723
283.64 K, 39507 kPa, Liquid	0.1031
283.71 K, 33240 kPa, Liquid	0.1008
283.73 K, 64639 kPa, Liquid	0.1101
283.76 K, 27097 kPa, Liquid	0.09854
283.77 K, 55316 kPa, Liquid	0.1077
283.82 K, 46190 kPa, Liquid	0.1049
283.86 K, 39512 kPa, Liquid	0.1027
283.93 K, 33245 kPa, Liquid	0.1004
283.99 K, 27090 kPa, Liquid	0.0982
301.07 K, 36400 kPa, Liquid	0.09652
301.1 K, 25797 kPa, Liquid	0.09286
301.12 K, 8081 kPa, Liquid	0.08639
301.14 K, 16454 kPa, Liquid	0.08935
301.14 K, 36402 kPa, Liquid	0.09595
301.16 K, 25808 kPa, Liquid	0.09205
301.18 K, 7827 kPa, Liquid	0.08636
301.18 K, 8082 kPa, Liquid	0.08488
301.18 K, 25511 kPa, Liquid	0.09374
301.2 K, 16447 kPa, Liquid	0.08939
301.24 K, 25515 kPa, Liquid	0.09289
301.25 K, 302 kPa, Liquid	0.08142
301.25 K, 4078 kPa, Liquid	0.08444
301.25 K, 7830 kPa, Liquid	0.08532
301.27 K, 16013 kPa, Liquid	0.08986
301.31 K, 4086 kPa, Liquid	0.08339
301.33 K, 303 kPa, Liquid	0.08177
301.39 K, 62986 kPa, Liquid	0.1067
301.41 K, 56492 kPa, Liquid	0.1055
301.42 K, 48436 kPa, Liquid	0.1008
301.43 K, 65550 kPa, Liquid	0.1085
301.44 K, 36396 kPa, Liquid	0.09731
301.47 K, 62992 kPa, Liquid	0.1061
301.48 K, 42020 kPa, Liquid	0.09884
301.49 K, 25801 kPa, Liquid	0.09292
301.49 K, 56482 kPa, Liquid	0.1049
301.5 K, 36232 kPa, Liquid	0.09714
301.5 K, 48438 kPa, Liquid	0.1006
301.5 K, 65547 kPa, Liquid	0.1082
301.52 K, 47198 kPa, Liquid	0.101
301.53 K, 8090 kPa, Liquid	0.08523
301.53 K, 36388 kPa, Liquid	0.09726
301.54 K, 16449 kPa, Liquid	0.09014
301.54 K, 20530 kPa, Liquid	0.09027
301.55 K, 25503 kPa, Liquid	0.09319
301.55 K, 30551 kPa, Liquid	0.09454
301.56 K, 143 kPa, Gas	0.01127
301.56 K, 145 kPa, Gas	0.01102
301.56 K, 42014 kPa, Liquid	0.09907
301.57 K, 36234 kPa, Liquid	0.09632
301.58 K, 25794 kPa, Liquid	0.0925
301.59 K, 122 kPa, Gas	0.01123
301.59 K, 131 kPa, Gas	0.01121
301.6 K, 7831 kPa, Liquid	0.08616
301.6 K, 11892 kPa, Liquid	0.08784
301.6 K, 47198 kPa, Liquid	0.1006
301.61 K, 16007 kPa, Liquid	0.08871
301.62 K, 8093 kPa, Liquid	0.08518
301.63 K, 367 kPa, Liquid	0.08213
301.63 K, 7868 kPa, Liquid	0.08523
301.63 K, 16455 kPa, Liquid	0.08833
301.63 K, 20523 kPa, Liquid	0.09097
301.63 K, 30560 kPa, Liquid	0.09455
301.65 K, 25502 kPa, Liquid	0.09219
301.68 K, 4077 kPa, Liquid	0.08414
301.69 K, 311 kPa, Liquid	0.08156
301.69 K, 11881 kPa, Liquid	0.08767
301.69 K, 16012 kPa, Liquid	0.08885
301.7 K, 7834 kPa, Liquid	0.08567
301.72 K, 7864 kPa, Liquid	0.08629
301.73 K, 363 kPa, Liquid	0.08194
301.77 K, 4081 kPa, Liquid	0.08378
301.78 K, 307 kPa, Liquid	0.08197
301.79 K, 62991 kPa, Liquid	0.1059
301.81 K, 65522 kPa, Liquid	0.1076
301.83 K, 48074 kPa, Liquid	0.1002
301.88 K, 36387 kPa, Liquid	0.09695
301.89 K, 143 kPa, Gas	0.01116
301.89 K, 62976 kPa, Liquid	0.1058
301.9 K, 141 kPa, Gas	0.01138
301.9 K, 65529 kPa, Liquid	0.1065
301.91 K, 122 kPa, Gas	0.01121
301.91 K, 42002 kPa, Liquid	0.09897
301.92 K, 130 kPa, Gas	0.01129
301.92 K, 36223 kPa, Liquid	0.09724
301.92 K, 56462 kPa, Liquid	0.1042
301.93 K, 47191 kPa, Liquid	0.1005
301.94 K, 25799 kPa, Liquid	0.09347
301.94 K, 48073 kPa, Liquid	0.1008
301.94 K, 48421 kPa, Liquid	0.1013
301.98 K, 30546 kPa, Liquid	0.09459
301.99 K, 36387 kPa, Liquid	0.09693
302 K, 16444 kPa, Liquid	0.08896
302.01 K, 8085 kPa, Liquid	0.08503
302.01 K, 20519 kPa, Liquid	0.09088
302.01 K, 25500 kPa, Liquid	0.09318
302.02 K, 41998 kPa, Liquid	0.09906
302.03 K, 47196 kPa, Liquid	0.1005
302.04 K, 36232 kPa, Liquid	0.09691
302.05 K, 25799 kPa, Liquid	0.0933
302.07 K, 11891 kPa, Liquid	0.08755
302.07 K, 16014 kPa, Liquid	0.08895
302.08 K, 7823 kPa, Liquid	0.08555
302.09 K, 30563 kPa, Liquid	0.0947
302.12 K, 7862 kPa, Liquid	0.08568
302.12 K, 16448 kPa, Liquid	0.08904
302.12 K, 20518 kPa, Liquid	0.09092
302.12 K, 25501 kPa, Liquid	0.09247
302.13 K, 365 kPa, Liquid	0.08182
302.13 K, 8079 kPa, Liquid	0.08538
302.16 K, 4079 kPa, Liquid	0.0839
302.19 K, 312 kPa, Liquid	0.08161
302.19 K, 11879 kPa, Liquid	0.08708
302.19 K, 16009 kPa, Liquid	0.08853
302.2 K, 7820 kPa, Liquid	0.08528
302.24 K, 7854 kPa, Liquid	0.08541
302.25 K, 142 kPa, Gas	0.01122
302.25 K, 62977 kPa, Liquid	0.106
302.26 K, 139 kPa, Gas	0.01122
302.26 K, 383 kPa, Liquid	0.08132
302.27 K, 65494 kPa, Liquid	0.1068
302.28 K, 122 kPa, Gas	0.01119
302.28 K, 130 kPa, Gas	0.01138
302.28 K, 56452 kPa, Liquid	0.1046
302.29 K, 4074 kPa, Liquid	0.08366
302.3 K, 48061 kPa, Liquid	0.1009
302.31 K, 299 kPa, Liquid	0.08152
302.31 K, 48422 kPa, Liquid	0.1015
302.37 K, 62973 kPa, Liquid	0.1058
302.38 K, 36377 kPa, Liquid	0.09716
302.39 K, 42000 kPa, Liquid	0.09898
302.39 K, 65480 kPa, Liquid	0.1069
302.4 K, 56441 kPa, Liquid	0.104
302.41 K, 36234 kPa, Liquid	0.09718
302.41 K, 47190 kPa, Liquid	0.1008
302.42 K, 48052 kPa, Liquid	0.1012
302.44 K, 48420 kPa, Liquid	0.1011
302.45 K, 25800 kPa, Liquid	0.09349
302.47 K, 30544 kPa, Liquid	0.0948
302.51 K, 20515 kPa, Liquid	0.09108
302.51 K, 25497 kPa, Liquid	0.09286
302.51 K, 36380 kPa, Liquid	0.09677
302.52 K, 41997 kPa, Liquid	0.0988
302.53 K, 132 kPa, Gas	0.0109
